Reference: ChEMBL document CHEMBL1681677 (Bioorg Med Chem Lett, 2011)

Tests used:
Carbonic anhydrase 1 = Carbonic anhydrase 1 (Homo sapiens, UniProt P00915)
Carbonic anhydrase 2 = Carbonic anhydrase 2 (Homo sapiens, UniProt P00918)
[1] = target: Carbonic anhydrase 5A, mitochondrial (Homo sapiens, UniProt P35218)
[2] = target: Carbonic anhydrase 5B, mitochondrial (Homo sapiens, UniProt Q9Y2D0)
Sequence of Carbonic anhydrase 5B, mitochondrial (Q9Y2D0 whole entry): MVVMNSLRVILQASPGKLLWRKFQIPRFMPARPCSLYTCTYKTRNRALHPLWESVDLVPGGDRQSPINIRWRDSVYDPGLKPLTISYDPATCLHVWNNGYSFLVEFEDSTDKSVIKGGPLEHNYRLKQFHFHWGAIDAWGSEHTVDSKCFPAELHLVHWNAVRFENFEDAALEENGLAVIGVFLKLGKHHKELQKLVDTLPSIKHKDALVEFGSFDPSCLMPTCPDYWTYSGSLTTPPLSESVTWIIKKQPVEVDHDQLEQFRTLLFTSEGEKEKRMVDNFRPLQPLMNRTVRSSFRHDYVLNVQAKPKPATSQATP

Sequence of Carbonic anhydrase 1 (P00915 whole entry): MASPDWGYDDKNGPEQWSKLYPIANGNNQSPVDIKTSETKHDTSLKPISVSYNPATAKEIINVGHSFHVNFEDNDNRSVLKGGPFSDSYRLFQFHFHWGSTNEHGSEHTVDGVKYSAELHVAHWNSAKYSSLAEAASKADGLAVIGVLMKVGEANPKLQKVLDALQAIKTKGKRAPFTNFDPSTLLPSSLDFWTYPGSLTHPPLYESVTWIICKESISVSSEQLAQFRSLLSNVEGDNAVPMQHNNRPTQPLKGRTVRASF
Sequence of Carbonic anhydrase 5A, mitochondrial (P35218 whole entry): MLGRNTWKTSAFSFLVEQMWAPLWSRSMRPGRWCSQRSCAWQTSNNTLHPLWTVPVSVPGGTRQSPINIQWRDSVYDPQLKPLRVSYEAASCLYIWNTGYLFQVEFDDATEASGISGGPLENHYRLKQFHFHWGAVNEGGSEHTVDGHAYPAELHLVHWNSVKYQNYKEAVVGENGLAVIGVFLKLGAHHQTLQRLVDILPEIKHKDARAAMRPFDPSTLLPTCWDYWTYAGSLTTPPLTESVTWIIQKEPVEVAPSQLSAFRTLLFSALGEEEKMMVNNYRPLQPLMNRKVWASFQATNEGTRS

Row | Ki (Carbonic anhydrase 1) | Ki (Carbonic anhydrase 2) | Ki [1] | Ki [2] | SMILES
1 | 1040 nM | 2460 nM | 27.5 nM | 67.3 nM | CC1(C)C2CC[C@@]1(CS(=O)(=O)NCc1ccc(S(N)(=O)=O)cc1)C(=O)C2
2 | 920 nM | 1560 nM | 16.6 nM | 40.3 nM | CC1(C)C2CC[C@]1(CS(=O)(=O)NCc1ccc(S(N)(=O)=O)cc1)C(=O)C2
